In assay [1] the target is full-length human PRMT1 isoform 1 (GST-tagged) (Homo sapiens, UniProt Q99873). Briefly: PRMT1 Biochemical Assay (3H-SAM Flashplate, peptide substrate). An excerpt:
General Materials. S-adenosylmethionine (SAM), S-adenosylhomocysteine (SAH), bicine, Tween20, dimethylsulfoxide (DMSO), bovine skin gelatin (BSG), and Tris(2-carboxyethyl)phosphine hydrochloride solution (TCEP) were purchased from Sigma-Aldrich at the highest level of purity possible. ^3H-SAM was purchase from American Radiolabeled Chemicals with a specific activity of 80 Ci/mmol. 384-well streptavidin Flashplates were purchased from PerkinElmer.
Protein Expression. Recombinant baculovirus were generated according to Bac-to-Bac kit instructions (Life Technologies). […] Infections were carried out at 27° C. for 48 hours, harvested by centrifugation, and stored at −80° C. for purification.
Protein Purification. […] GST-tagged PRMT1 was eluted with 50 mM Tris, 2 mM glutathione, pH 7.8, dialysed in buffer A and concentrated to 1 mg/mL.
General Procedure for PRMT1 Enzyme Assays on Peptide Substrates. The assays were all performed in a buffer consisting of 20 mM Bicine (pH=7.6), 1 mM TCEP, 0.005% BSG, and 0.002% Tween 20, prepared on the day of use. […] DMSO (1 ul) was added to Columns 11, 12, 23, 24, rows A-H for the maximum signal control and 1 ul of SAH, a known product and inhibitor of PRMT1, was added to columns 11, 12, 23, 24, rows I-P for the minimum signal control. A cocktail (40 ul) containing the PRMT1 enzyme was added by Multidrop Combi (Thermo-Fisher). The compounds were allowed to incubate with PRMT1 for 30 min at room temperature, then a cocktail (10 ul) containing SAM and peptide was added to initiate the reaction (final volume=51 ul). […] The assays were stopped by the addition of non-radiolabeled SAM (10 ul) to a final concentration of 300 uM, which dilutes the ^3H-SAM to a level where its incorporation into the peptide substrate is no longer detectable. 50 ul of the reaction in the 384-well polypropylene plate was then transferred to a 384-well Flashplate and the biotinylated peptides were allowed to bind to the streptavidin surface for at least 1 hour before being washed once with 0.1% Tween20 in a Biotek ELx405 plate washer. The plates were then read in a PerkinElmer TopCount plate reader to measure the quantity of ^3H-labeled peptide bound to the Flashplate surface, measured as disintegrations per minute (dpm) or alternatively, referred to as counts per minute (cpm).
Where dpm=disintegrations per minute, cmpd=signal in assay well, and min and max are the respective minimum and maximum signal controls.
Where top and bottom are the normally allowed to float, but may be fixed at 100 or 0 respectively in a 3-parameter fit. The Hill Coefficient normally allowed to float but may also be fixed at 1 in a 3-parameter fit. Y is the % inhibition and X is the compound concentration.

Assay [2] concerns the target full-length human PRMT8 isoform 1 (Homo sapiens, UniProt Q9NR22). Briefly: PRMT8 Biochemical Assay (3H-SAM Flashplate, peptide substrate). To be noted: read-out: Biochemical IC50 PRMT8. The essentials:
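Scintillation Flashplate capture of biotinylated histone H4 (31-45) peptide (150 nM) methylated by 1.5 nM PRMT8 using 3H-SAM (50 nM) with unlabelled SAM (550 nM); enzyme and compound preincubated 30 min, room temperature, in Bicine pH 7.6 buffer with TCEP, BSG, Tween 20 and 2% DMSO. Stopped with excess cold SAM (400 uM); IC50 from % inhibition, min control 1 mM SAH.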

Where [3] appears, read: single experiment or average of multiple experiments.

Like-named read-outs stand apart in the source and are kept apart here.

Sequence of full-length human PRMT1 isoform 1 (GST-tagged) (Q99873 with tags, fused parts or gaps): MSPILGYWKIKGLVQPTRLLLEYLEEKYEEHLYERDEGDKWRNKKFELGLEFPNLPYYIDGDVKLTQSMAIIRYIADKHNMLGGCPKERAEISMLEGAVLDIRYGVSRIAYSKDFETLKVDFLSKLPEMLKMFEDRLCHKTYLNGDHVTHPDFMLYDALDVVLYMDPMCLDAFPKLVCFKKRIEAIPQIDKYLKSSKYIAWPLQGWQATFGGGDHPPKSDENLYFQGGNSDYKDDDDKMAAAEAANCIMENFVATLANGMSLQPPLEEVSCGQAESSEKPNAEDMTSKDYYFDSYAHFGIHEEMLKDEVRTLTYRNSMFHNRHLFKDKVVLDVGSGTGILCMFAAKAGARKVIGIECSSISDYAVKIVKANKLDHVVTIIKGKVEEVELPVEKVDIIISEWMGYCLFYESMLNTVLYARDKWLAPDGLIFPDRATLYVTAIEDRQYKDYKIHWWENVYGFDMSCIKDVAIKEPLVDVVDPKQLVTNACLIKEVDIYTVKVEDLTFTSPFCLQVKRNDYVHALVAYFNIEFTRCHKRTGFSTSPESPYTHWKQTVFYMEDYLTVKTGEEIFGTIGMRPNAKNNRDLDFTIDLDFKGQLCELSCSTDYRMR
Sequence of full-length human PRMT8 isoform 1 (Q9NR22 whole entry, canonical isoform): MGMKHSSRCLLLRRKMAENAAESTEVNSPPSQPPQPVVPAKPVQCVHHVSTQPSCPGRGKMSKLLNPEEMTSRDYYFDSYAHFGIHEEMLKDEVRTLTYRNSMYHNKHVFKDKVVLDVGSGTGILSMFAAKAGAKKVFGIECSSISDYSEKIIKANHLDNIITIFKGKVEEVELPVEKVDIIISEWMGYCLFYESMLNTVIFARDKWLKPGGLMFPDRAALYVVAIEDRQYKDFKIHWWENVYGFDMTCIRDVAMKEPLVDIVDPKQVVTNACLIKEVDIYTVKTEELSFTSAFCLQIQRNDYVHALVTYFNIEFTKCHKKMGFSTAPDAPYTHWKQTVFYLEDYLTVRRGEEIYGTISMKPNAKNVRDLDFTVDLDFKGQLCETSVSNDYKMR

Consider `CCCOC1CC(OCCC)CC(c2n[nH]cc2CN(C)CCNC)C1` (stereo not drawn) [Compound 131], for which the IC50 in assay [1] is 101 to 1000 nM; in assay [1] (setting [3]) it was 270 nM; in assay [2], 1010 to 3000 nM; in assay [2] (setting [3]), 1970 nM.

With `CCOC1CC(OCC)CC(c2n[nH]cc2CN(C)CCNC)C1` (stereo not drawn) [Compound 132], the IC50 was 101 to 1000 nM in assay [1], 626 nM in assay [1] (setting [3]), 3010 to 10000 nM in assay [2] and 4330 nM in assay [2] (setting [3]).

For the compound `CNCCN(C)Cc1c[nH]nc1C1CCC(OCCOc2ccccc2)CC1` (stereo not drawn) [Compound 136], the IC50 in assay [1] is below 100 nM; in assay [1] (setting [3]) it was 2.9 nM; in assay [2] it was below 100 nM; in assay [2] (setting [3]), 6.8 nM.

On to `CNCCN(C)Cc1c[nH]nc1C1CCC2(CCCCO2)CC1` (stereo not drawn) [Compound 137], for which the IC50 in assay [1] was below 100 nM; in assay [1] (setting [3]) it was 7.3 nM; in assay [2], below 100 nM; in assay [2] (setting [3]), 16.2 nM.

On to `CNCCN(C)Cc1c[nH]nc1C1CC(COC)CC(COC)C1` (stereo not drawn) [Compound 138], for which the IC50 is 101 to 1000 nM in assay [1], 349 nM in assay [1] (setting [3]), 1010 to 3000 nM in assay [2] and 1430 nM in assay [2] (setting [3]).

As for `CNCCN(C)Cc1c[nH]nc1[C@H]1CC[C@H](OC2CCCCC2)CC1` [Compound 139], the IC50 was below 100 nM in assay [1], 30.5 nM in assay [1] (setting [3]), 101 to 1000 nM in assay [2] and 116 nM in assay [2] (setting [3]).

For `CNCCN(C)Cc1c[nH]nc1[C@H]1CC[C@@H](OC2CCCCC2)CC1` [Compound 140], the IC50 in assay [1] is below 100 nM; in assay [1] (setting [3]) it was 15.6 nM; in assay [2] it was below 100 nM; in assay [2] (setting [3]) it was 33.9 nM.

Take `CNCCN(C)Cc1c[nH]nc1[C@H]1CC[C@@]2(CCOC2)CC1` [Compound 141]: the IC50 in assay [1] was below 100 nM; in assay [1] (setting [3]), 10.7 nM; in assay [2] it was below 100 nM; in assay [2] (setting [3]), 29.7 nM.

For the compound `CNCCN(C)Cc1c[nH]nc1[C@H]1CC[C@]2(CCOC2)CC1` [Compound 142], the IC50 in assay [1] was below 100 nM; in assay [1] (setting [3]) it was 7.2 nM; in assay [2] it was below 100 nM; in assay [2] (setting [3]), 15.9 nM.

Take `CNCCN(C)Cc1c[nH]nc1[C@H]1CC[C@@]2(CCCO2)CC1` [Compound 143]: the IC50 is below 100 nM in assay [1], 10.6 nM in assay [1] (setting [3]), below 100 nM in assay [2] and 33 nM in assay [2] (setting [3]).

As to `CNCCN(C)Cc1c[nH]nc1C1CCC2(CC1)CC2` [Compound 144], the IC50 in assay [1] was below 100 nM; in assay [1] (setting [3]), 21.6 nM; in assay [2], below 100 nM; in assay [2] (setting [3]), 78.4 nM.

For `CNCCN(C)Cc1c[nH]nc1C1CCC2(CC1)C(=O)NC(=O)N2C` (stereo not drawn) [Compound 161], the IC50 in assay [1] is below 100 nM; in assay [1] (setting [3]) it was 25.6 nM; in assay [2], below 100 nM; in assay [2] (setting [3]), 37.4 nM.

Turning to `CCN1C(=O)N(C)CC12CCC(c1n[nH]cc1CN(C)CCNC)CC2` (stereo not drawn) [Compound 162], the IC50 in assay [1] is below 100 nM; in assay [1] (setting [3]) it was 38.9 nM; in assay [2], below 100 nM; in assay [2] (setting [3]), 92.7 nM.

As to `CNCCN(C)Cc1c[nH]nc1C1CCC2(CC1)CCN(CCC(C)C)C2=O` (stereo not drawn) [Compound 163], the IC50 in assay [1] is below 100 nM; in assay [1] (setting [3]), 17.3 nM; in assay [2] it was below 100 nM; in assay [2] (setting [3]), 15.8 nM.

`CNCCN(C)Cc1c[nH]nc1C1CCC2(CC1)CCN(CC(C)C)C2=O` (stereo not drawn) [Compound 164]: the IC50 in assay [1] was below 100 nM; in assay [1] (setting [3]), 19.7 nM; in assay [2] it was below 100 nM; in assay [2] (setting [3]) it was 19.1 nM.

In the case of `CNCCN(C)Cc1c[nH]nc1C1CCC2(CC1)CC(=O)N(CCC(C)C)C2` (stereo not drawn) [Compound 165], the 50% inhibitory concentration (IC50) was below 100 nM in assay [1], 17.6 nM in assay [1] (setting [3]), below 100 nM in assay [2] and 18.1 nM in assay [2] (setting [3]).

As to `CNCCN(C)Cc1c[nH]nc1[C@H]1CC[C@@H](COC)CC1` [Compound 166], the IC50 in assay [1] is below 100 nM; in assay [1] (setting [3]), 18 nM; in assay [2], below 100 nM; in assay [2] (setting [3]), 23 nM.

`CNCCN(C)Cc1c[nH]nc1[C@H]1CC[C@H](COC)CC1` [Compound 167]: the IC50 in assay [1] was below 100 nM; in assay [1] (setting [3]), 11 nM; in assay [2], below 100 nM; in assay [2] (setting [3]), 13 nM.

Turning to `CCOC1CC2(CCC(c3n[nH]cc3CN(C)CCNC)CC2)CC1OCC` (stereo not drawn) [Compound 168], the IC50 was below 100 nM in assay [1], 19.8 nM in assay [1] (setting [3]), below 100 nM in assay [2] and 28.1 nM in assay [2] (setting [3]).

Take `CNCCN(C)Cc1c[nH]nc1C1CCC(CC(C)C)CC1` (stereo not drawn) [Compound 169]: the IC50 in assay [1] is below 100 nM; in assay [1] (setting [3]) it was 6.5 nM; in assay [2], below 100 nM; in assay [2] (setting [3]) it was 10.2 nM.

As for `CNCCN(C)Cc1c[nH]nc1C1CCC2(CC1)NC(=O)N(C)C2=O` (stereo not drawn) [Compound 170], the concentration for half-maximal inhibition (IC50) in assay [1] was below 100 nM; in assay [1] (setting [3]), 21 nM; in assay [2], below 100 nM; in assay [2] (setting [3]), 23.7 nM.

For `CNCCN(C)Cc1c[nH]nc1C1CCC2(CC1)NC(=O)NC2=O` (stereo not drawn) [Compound 175], the IC50 in assay [1] is below 100 nM; in assay [1] (setting [3]), 13.3 nM; in assay [2], below 100 nM; in assay [2] (setting [3]), 29.6 nM.

In the case of `CNCCN(C)Cc1c[nH]nc1C1CCC2(CCNC2=O)CC1` (stereo not drawn) [Compound 176], the half-maximal inhibitory concentration (IC50) in assay [1] is below 100 nM; in assay [1] (setting [3]) it was 10.2 nM; in assay [2], below 100 nM; in assay [2] (setting [3]), 28.6 nM.

Regarding `CNCCN(C)Cc1c[nH]nc1C1CCC2(CC1)OCCO2` [Compound 177], the IC50 in assay [1] is below 100 nM; in assay [1] (setting [3]) it was 27.6 nM; in assay [2], 101 to 1000 nM; in assay [2] (setting [3]), 150 nM.

On to `CNCCN(C)Cc1c[nH]nc1C1CCC2(CCOCC2)CC1` [Compound 178], for which the IC50 was below 100 nM in assay [1], 5.8 nM in assay [1] (setting [3]), below 100 nM in assay [2] and 20.5 nM in assay [2] (setting [3]).

`CNCCN(C)Cc1c[nH]nc1C1CC(C)OC(C)C1` (stereo not drawn) [Compound 179]: the IC50 in assay [1] is below 100 nM; in assay [1] (setting [3]) it was 15.9 nM; in assay [2] it was below 100 nM; in assay [2] (setting [3]) it was 57.3 nM.

`CNCCN(C)Cc1c[nH]nc1C1CCC(O)C2(CCCC2)C1` (stereo not drawn) [Compound 182, 9-[4-({methyl[2-(methylamino)ethyl]amino}methyl)-1H-pyrazol-3-yl]spiro[4.5]decan-6-ol]: the IC50 in assay [1] was below 100 nM; in assay [1] (setting [3]) it was 11.6 nM; in assay [2] it was below 100 nM; in assay [2] (setting [3]) it was 32.3 nM.

In the case of `CNCCN(C)Cc1c[nH]nc1C1CCC(C)(C)C(O)C1` (stereo not drawn) [Compound 185, 2,2-dimethyl-5-[4-({methyl[2-(methylamino)ethyl]amino}methyl)-1H-pyrazol-3-yl]cyclohexan-1-ol], the IC50 in assay [1] was below 100 nM; in assay [1] (setting [3]), 14.2 nM; in assay [2], below 100 nM; in assay [2] (setting [3]) it was 24.4 nM.

Consider `CNCCN(C)Cc1c[nH]nc1[C@H]1CC[C@H](OCCOc2ccc(OC)cc2)CC1` [Compound 186], for which the IC50 was 101 to 1000 nM in assay [1], 110 nM in assay [1] (setting [3]), below 100 nM in assay [2] and 89.6 nM in assay [2] (setting [3]).

For the compound `CNCCN(C)Cc1c[nH]nc1[C@H]1CC[C@H](OCCOc2ccccc2)CC1` [Compound 187], the IC50 is 101 to 1000 nM in assay [1], 193 nM in assay [1] (setting [3]), 101 to 1000 nM in assay [2] and 185 nM in assay [2] (setting [3]).
